Data from PubChem BioAssay AID248 (DTP/NCI, 2004).
Where “and” joins values, the source holds several entries; their conditions need not be identical. Identical values can stand only once. Inconclusive results and toxic doses are left out. Cut-off read from the data, not from the text of the source: active = T/C of 150% or more; inactive = T/C below 125%.

Tested on: L1210 leukemia ip in BDF1 mice, survival T/C
Assay: NCI In Vivo Anticancer Drug Screen. Data for tumor model L1210 Leukemia (intraperitoneal) in B6D2F1 (BDF1) mice
Conditions: endpoint: mean survival time, higher = longer survival
Method in brief: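 In this screen, tumor-bearing mice given compound are compared to those given vehicle, and their survival values are reported as a treated-to-control quotient.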

[1] = dose: 100.0 mg/kg/injection, schedule: Q01DX009 (ip), vehicle: Klucel (hydroxypropylcellulose) (HPC)
[2] = dose: 100.0 mg/kg/injection, schedule: Q04DX003 (ip), vehicle: Klucel (hydroxypropylcellulose) (HPC)
[3] = dose: 200.0 mg/kg/injection, schedule: Q01DX009 (ip), vehicle: Klucel (hydroxypropylcellulose) (HPC)
[4] = dose: 200.0 mg/kg/injection, schedule: Q04DX003 (ip), vehicle: Klucel (hydroxypropylcellulose) (HPC)
[5] = dose: 400.0 mg/kg/injection, schedule: Q04DX003 (ip), vehicle: Klucel (hydroxypropylcellulose) (HPC)
[6] = dose: 100.0 mg/kg/injection, schedule: Q01DX001 (ip), vehicle: saline
[7] = dose: 200.0 mg/kg/injection, schedule: Q01DX001 (ip), vehicle: saline
[8] = dose: 400.0 mg/kg/injection, schedule: Q01DX001 (ip), vehicle: saline
[9] = dose: 400.0 mg/kg/injection, schedule: Q01DX009 (ip), vehicle: Klucel (hydroxypropylcellulose) (HPC)
[10] = dose: 50.0 mg/kg/injection, schedule: Q01DX009 (ip), vehicle: saline with Tween-80
[11] = dose: 100.0 mg/kg/injection, schedule: Q04DX003 (ip), vehicle: saline
[12] = dose: 200.0 mg/kg/injection, schedule: Q04DX003 (ip), vehicle: saline
[13] = dose: 400.0 mg/kg/injection, schedule: Q04DX003 (ip), vehicle: saline
[14] = dose: 100.0 mg/kg/injection, schedule: Q04DX003 (ip), vehicle: saline with Tween-80
[15] = dose: 200.0 mg/kg/injection, schedule: Q04DX003 (ip), vehicle: saline with Tween-80
[16] = dose: 400.0 mg/kg/injection, schedule: Q04DX003 (ip), vehicle: saline with Tween-80

Measured: T/C

Cc1cccc(C)c1NC(=O)Oc1ccccc1C(N)=O
inactive: [1] 97 % of control | [2] 98 % of control | [3] 100 % of control | [4] 104 % of control | [5] 94 % of control

CCOC(=O)c1cnc(N)nc1
inactive: [2] 97 % of control | [4] 101 % of control | [5] 98 % of control

CC(C)(C)N1CCC1C(=O)O (stereo not given)
inactive: [6] 92 % of control | [7] 97 % of control | [8] 97 % of control

Cc1ccc(C2NC(=O)c3ccccc3N2)c(C)c1 (stereo not given)
inactive: dose: 50.0 mg/kg/injection, schedule: Q01DX009 (ip), vehicle: Klucel (hydroxypropylcellulose) (HPC) 100 % of control | [1] 94 % of control and 99 % of control | [2] 103 % of control | dose: 150.0 mg/kg/injection, schedule: Q01DX009 (ip), vehicle: Klucel (hydroxypropylcellulose) (HPC) 93 % of control | [3] 106 % of control | [4] 95 % of control | [9] 96 % of control | [5] 95 % of control

S=C=NCCc1ccccc1
inactive: dose: 12.5 mg/kg/injection, schedule: Q01DX009 (ip), vehicle: saline with Tween-80 101 % of control | dose: 25.0 mg/kg/injection, schedule: Q01DX009 (ip), vehicle: saline with Tween-80 104 % of control | [10] 108 % of control | dose: 100.0 mg/kg/injection, schedule: Q01DX009 (ip), vehicle: saline with Tween-80 87 % of control

CCOC(=O)C(C#N)C(=N)C1CC(C)(C)OC1=O (stereo not given)
inactive: dose: 75.0 mg/kg/injection, schedule: Q01DX001 (ip), vehicle: other 101 % of control | dose: 150.0 mg/kg/injection, schedule: Q01DX001 (ip), vehicle: other 106 % of control

COC(=O)C(COS(=O)(=O)c1ccccc1)NC(=O)OCc1ccccc1 (stereo not given)
inactive: dose: 100.0 mg/kg/injection, schedule: Q01DX009 (ip), vehicle: saline 100 % of control | [11] 92 % of control | dose: 200.0 mg/kg/injection, schedule: Q01DX009 (ip), vehicle: saline 98 % of control | [12] 97 % of control | dose: 400.0 mg/kg/injection, schedule: Q01DX009 (ip), vehicle: saline 96 % of control | [13] 95 % of control

COc1ccc(OC)c(/C=C(C(=O)O)/C(=C/c2cc(OC)ccc2OC)C(=O)O)c1
inactive: [14] 105 % of control | [15] 102 % of control | [16] 97 % of control

O=C(Nc1ccc(Cl)c([N+](=O)[O-])c1)Nc1nnc(Br)s1
inactive: [1] 104 % of control | [3] 90 % of control | [9] 97 % of control

[Cl][Sn]([CH]1CCCCC1)([CH]1CCCCC1)[CH]1CCCCC1
inactive: dose: 12.5 mg/kg/injection, schedule: Q04DX002 (ip), vehicle: gum acacia 101 % of control | dose: 25.0 mg/kg/injection, schedule: Q04DX002 (ip), vehicle: gum acacia 101 % of control

CCCP(=S)(C(C)C)C(C)C
inactive: [14] 103 % of control

CCCC1C(CC)C=NN1Cc1ccccc1 (stereo not given)
inactive: dose: 50.0 mg/kg/injection, schedule: Q01DX001 (ip), vehicle: carboxymethylcellulose (CMC) 88 % of control | dose: 100.0 mg/kg/injection, schedule: Q01DX001 (ip), vehicle: carboxymethylcellulose (CMC) 100 % of control | dose: 200.0 mg/kg/injection, schedule: Q01DX001 (ip), vehicle: carboxymethylcellulose (CMC) 94 % of control | dose: 400.0 mg/kg/injection, schedule: Q01DX001 (ip), vehicle: carboxymethylcellulose (CMC) 92 % of control

O=C1CCC2(CCCc3c2ccc2ccccc32)O1 (stereo not given)
inactive: dose: 50.0 mg/kg/injection, schedule: Q04DX003 (ip), vehicle: saline 97 % of control | [11] 97 % of control | [12] 90 % of control

CCCC1=CN(Cc2ccccc2)c2ccccc2C1
inactive: [6] 96 % of control | [11] 97 % of control | [7] 96 % of control | [12] 97 % of control | [8] 97 % of control | [13] 93 % of control

O=P(O)(O)CCC(O)CO (stereo not given)
inactive: dose: 100.0 mg/kg/injection, schedule: Q04DX002 (ip), vehicle: saline 94 % of control | dose: 200.0 mg/kg/injection, schedule: Q04DX002 (ip), vehicle: saline 97 % of control | dose: 400.0 mg/kg/injection, schedule: Q04DX002 (ip), vehicle: saline 102 % of control

Cc1cc(C)c(NC(=O)c2cc(C(=O)O)c(C(=O)Nc3c(C)cc(C)cc3C)cc2C(=O)O)c(C)c1
inactive: [10] 119 % of control and 91 % of control | dose: 100.0 mg/kg/injection, schedule: Q01DX001 (ip), vehicle: saline with Tween-80 104 % of control | dose: 100.0 mg/kg/injection, schedule: Q04DX002 (ip), vehicle: saline with Tween-80 104 % of control and 110 % of control | [14] 107 % of control | dose: 200.0 mg/kg/injection, schedule: Q01DX001 (ip), vehicle: saline with Tween-80 98 % of control | dose: 200.0 mg/kg/injection, schedule: Q04DX002 (ip), vehicle: saline with Tween-80 94 % of control and 113 % of control | [15] 100 % of control | dose: 400.0 mg/kg/injection, schedule: Q01DX001 (ip), vehicle: saline with Tween-80 102 % of control | dose: 400.0 mg/kg/injection, schedule: Q01DX009 (ip), vehicle: saline with Tween-80 87 % of control and 89 % of control | dose: 400.0 mg/kg/injection, schedule: Q04DX002 (ip), vehicle: saline with Tween-80 100 % of control | [16] 96 % of control

BrCc1nc2ccccc2[nH]1
inactive: [6] 95 % of control | [7] 101 % of control | [8] 107 % of control

CC(O)(CC(c1ccccc1)N1CCc2ccccc2C1)c1ccccc1 (stereo not given)
inactive: [11] 105 % of control | [12] 102 % of control | [13] 96 % of control

CC[As](=O)(O)c1ccccc1
inactive: dose: 6.25 mg/kg/injection, schedule: Q01DX009 (ip), vehicle: saline 89 % of control | dose: 12.5 mg/kg/injection, schedule: Q01DX009 (ip), vehicle: saline 89 % of control
